Several values for one entry are separate records, joined by “and”; a condition that tells them apart may be missing. Identical values can stand only once. Toxic doses and inconclusive results are not listed. Cut-off read from the data, not from the text of the source: active = T/C of 150% or more; inactive = T/C below 125%.
Tested on: L1210 leukemia ip in BDF1 mice, survival T/C
Experiment: NCI In Vivo Anticancer Drug Screen. Data for tumor model L1210 Leukemia (intraperitoneal) in B6D2F1 (BDF1) mice
Settings: endpoint: mean survival time, higher = longer survival
Summary of the method: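 In this screen, tumor-bearing mice given compound are compared to those given vehicle, and their survival values are reported as a treated-to-control quotient.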

[1] = dose: 100.0 mg/kg/injection, schedule: Q01DX009 (ip), vehicle: saline with Tween-80
[2] = dose: 100.0 mg/kg/injection, schedule: Q04DX003 (ip), vehicle: saline with Tween-80
[3] = dose: 200.0 mg/kg/injection, schedule: Q01DX009 (ip), vehicle: saline with Tween-80
[4] = dose: 200.0 mg/kg/injection, schedule: Q04DX003 (ip), vehicle: saline with Tween-80
[5] = dose: 400.0 mg/kg/injection, schedule: Q01DX009 (ip), vehicle: saline with Tween-80
[6] = dose: 400.0 mg/kg/injection, schedule: Q04DX003 (ip), vehicle: saline with Tween-80
[7] = dose: 12.5 mg/kg/injection, schedule: Q01DX009 (ip), vehicle: saline with Tween-80
[8] = dose: 25.0 mg/kg/injection, schedule: Q01DX009 (ip), vehicle: saline with Tween-80
[9] = dose: 100.0 mg/kg/injection, schedule: Q01DX001 (ip), vehicle: saline
[10] = dose: 25.0 mg/kg/injection, schedule: Q01DX009 (ip), vehicle: Klucel (hydroxypropylcellulose) (HPC)
[11] = dose: 25.0 mg/kg/injection, schedule: Q04DX003 (ip), vehicle: Klucel (hydroxypropylcellulose) (HPC)
[12] = dose: 50.0 mg/kg/injection, schedule: Q04DX003 (ip), vehicle: Klucel (hydroxypropylcellulose) (HPC)
[13] = dose: 100.0 mg/kg/injection, schedule: Q01DX009 (ip), vehicle: Klucel (hydroxypropylcellulose) (HPC)
[14] = dose: 100.0 mg/kg/injection, schedule: Q04DX003 (ip), vehicle: saline
[15] = dose: 200.0 mg/kg/injection, schedule: Q01DX009 (ip), vehicle: Klucel (hydroxypropylcellulose) (HPC)
[16] = dose: 400.0 mg/kg/injection, schedule: Q01DX009 (ip), vehicle: Klucel (hydroxypropylcellulose) (HPC)
[17] = dose: 100.0 mg/kg/injection, schedule: Q04DX003 (ip), vehicle: Klucel (hydroxypropylcellulose) (HPC)
[18] = dose: 200.0 mg/kg/injection, schedule: Q04DX003 (ip), vehicle: Klucel (hydroxypropylcellulose) (HPC)
[19] = dose: 400.0 mg/kg/injection, schedule: Q04DX003 (ip), vehicle: Klucel (hydroxypropylcellulose) (HPC)
[20] = dose: 50.0 mg/kg/injection, schedule: Q04DX002 (ip), vehicle: saline
[21] = dose: 100.0 mg/kg/injection, schedule: Q04DX002 (ip), vehicle: saline
[22] = dose: 50.0 mg/kg/injection, schedule: Q01DX009 (ip), vehicle: saline
[23] = dose: 100.0 mg/kg/injection, schedule: Q01DX009 (ip), vehicle: saline

Measured: T/C

CCC(Oc1ccccc1OC)C(=O)O (stereo not given)
inactive: dose: 100.0 mg/kg/injection, schedule: Q01DX001 (ip), vehicle: Klucel (hydroxypropylcellulose) (HPC) 105 % of control | dose: 200.0 mg/kg/injection, schedule: Q01DX001 (ip), vehicle: Klucel (hydroxypropylcellulose) (HPC) 103 % of control | dose: 400.0 mg/kg/injection, schedule: Q01DX001 (ip), vehicle: Klucel (hydroxypropylcellulose) (HPC) 103 % of control

COc1ccc(C(O)c2nnc(-c3ccccc3)nn2)cc1 (stereo not given)
inactive: dose: 100.0 mg/kg/injection, schedule: Q01DX001 (ip), vehicle: gum acacia 90 % of control | dose: 200.0 mg/kg/injection, schedule: Q01DX001 (ip), vehicle: gum acacia 120 % of control | dose: 400.0 mg/kg/injection, schedule: Q01DX001 (ip), vehicle: gum acacia 107 % of control

CC(CS)CS
inactive: dose: 100.0 mg/kg/injection, schedule: Q01DX001 (ip), vehicle: carboxymethylcellulose (CMC) 95 % of control | dose: 200.0 mg/kg/injection, schedule: Q01DX001 (ip), vehicle: carboxymethylcellulose (CMC) 95 % of control | dose: 400.0 mg/kg/injection, schedule: Q01DX001 (ip), vehicle: carboxymethylcellulose (CMC) 95 % of control

NC(N)=N/N=C/c1cccc(F)c1
inactive: dose: 15.0 mg/kg/injection, schedule: Q01DX Z (ip), vehicle: saline 111 % of control | dose: 15.0 mg/kg/injection, schedule: Q01DX Z (oral), vehicle: saline 87 % of control | dose: 30.0 mg/kg/injection, schedule: Q01DX Z (ip), vehicle: saline 90 % of control | dose: 30.0 mg/kg/injection, schedule: Q01DX Z (oral), vehicle: saline 90 % of control

CCOC(=O)Nc1cc(Cl)c(N)c(NC(=O)OCC)n1
inactive: [1] 94 % of control | [2] 98 % of control | [3] 100 % of control | [4] 93 % of control | [5] 97 % of control | [6] 100 % of control

CC(=N\N)/C(C)=N/N
inactive: dose: 6.25 mg/kg/injection, schedule: Q01DX009 (ip), vehicle: saline with Tween-80 102 % of control | [7] 100 % of control | [8] 107 % of control

Cc1cc(C)c2ccc(NC(=O)CCC(=O)O)nc2n1
inactive: [9] 95 % of control

CCN=C(NC(=S)Nc1ccc(Cl)cc1)SCC
inactive: dose: 100.0 mg/kg/injection, schedule: Q04DX002 (ip), vehicle: saline with Tween-80 98 % of control | dose: 200.0 mg/kg/injection, schedule: Q04DX002 (ip), vehicle: saline with Tween-80 98 % of control | dose: 400.0 mg/kg/injection, schedule: Q04DX002 (ip), vehicle: saline with Tween-80 95 % of control

c1ccc2c(c1)C1c3cccc[n+]3C2CC1n1c2ccccc2c2ccccc21 (stereo not given)
inactive: dose: 12.5 mg/kg/injection, schedule: Q01DX009 (ip), vehicle: Klucel (hydroxypropylcellulose) (HPC) 106 % of control | dose: 12.5 mg/kg/injection, schedule: Q04DX003 (ip), vehicle: Klucel (hydroxypropylcellulose) (HPC) 111 % of control | [10] 106 % of control | [11] 106 % of control | [12] 91 % of control | [13] 102 % of control | [14] 93 % of control | [15] 94 % of control | dose: 200.0 mg/kg/injection, schedule: Q04DX003 (ip), vehicle: saline 98 % of control | [16] 94 % of control | dose: 400.0 mg/kg/injection, schedule: Q04DX003 (ip), vehicle: saline 94 % of control

NC(=O)NC(=O)NC1CCCCC1
inactive: [17] 102 % of control | [18] 102 % of control | [19] 100 % of control

CC(C)C(=O)[O][Pb]([CH3])([CH3])[CH3]
inactive: dose: 12.5 mg/kg/injection, schedule: Q04DX002 (ip), vehicle: saline 90 % of control

CSc1cc(N)nc2nc[nH]c12
inactive: [9] 105 % of control | dose: 200.0 mg/kg/injection, schedule: Q01DX001 (ip), vehicle: saline 98 % of control | dose: 400.0 mg/kg/injection, schedule: Q01DX001 (ip), vehicle: saline 98 % of control

CCCCNC(=O)Nc1cccc2ccccc12
inactive: [13] 96 % of control | [15] 96 % of control | [16] 97 % of control

COc1ccc(/C=N\O)cc1OC
inactive: [1] 94 % of control and 90 % of control | [3] 101 % of control | [5] 90 % of control

O=CO.[Cd]
inactive: dose: 5.0 mg/kg/injection, schedule: Q01DX001 (ip), vehicle: saline 104 % of control

CCCCNC(=O)Oc1cccc(NC(=O)OC)c1
inactive: [1] 96 % of control | [3] 92 % of control | [5] 105 % of control

O=[N+]([O-])c1ccccc1C1=Cc2cccn2-c2ccccc2S1(=O)=O
inactive: [17] 95 % of control | [18] 100 % of control

CC/C(=C\c1ccccc1)[N+](=O)[O-]
inactive: [10] 102 % of control | [11] 97 % of control | dose: 50.0 mg/kg/injection, schedule: Q01DX009 (ip), vehicle: Klucel (hydroxypropylcellulose) (HPC) 98 % of control | [12] 90 % of control | [17] 103 % of control

CC[n+]1ccc(Nc2ccc(NC(=O)c3ccc([N+](=O)[O-])cc3)cc2)cc1
inactive: [7] 100 % of control | [8] 91 % of control | dose: 50.0 mg/kg/injection, schedule: Q01DX009 (ip), vehicle: saline with Tween-80 88 % of control | dose: 100.0 mg/kg/injection, schedule: Q01DX001 (ip), vehicle: saline with Tween-80 100 % of control | [1] 92 % of control | dose: 200.0 mg/kg/injection, schedule: Q01DX001 (ip), vehicle: saline with Tween-80 110 % of control | dose: 400.0 mg/kg/injection, schedule: Q01DX001 (ip), vehicle: saline with Tween-80 98 % of control

CCOC(=O)/C(C#N)=C/c1cccn1Cc1cc(OC)cc(OC)c1
inactive: dose: 25.0 mg/kg/injection, schedule: Q04DX002 (ip), vehicle: saline 111 % of control | [20] 101 % of control | [21] 94 % of control

O=C(O)CC(NC(=O)c1ccccc1)C(=O)O (stereo not given)
inactive: [22] 93 % of control | [23] 89 % of control | dose: 200.0 mg/kg/injection, schedule: Q01DX009 (ip), vehicle: saline 97 % of control

O/C=C(\Cl)CCl
inactive: dose: 50.0 mg/kg/injection, schedule: Q01DX001 (ip), vehicle: saline 100 % of control | [22] 107 % of control and 108 % of control | [20] 97 % of control and 106 % of control | dose: 50.0 mg/kg/injection, schedule: Q04DX003 (ip), vehicle: saline 97 % of control | [9] 90 % of control | [23] 101 % of control and 104 % of control | [14] 106 % of control

Oc1ccc(-c2nnc(-c3ccccc3)nn2)cc1
inactive: dose: 100.0 mg/kg/injection, schedule: Q04DX003 (ip), vehicle: gum acacia 104 % of control | dose: 200.0 mg/kg/injection, schedule: Q04DX003 (ip), vehicle: gum acacia 95 % of control | dose: 400.0 mg/kg/injection, schedule: Q04DX003 (ip), vehicle: gum acacia 95 % of control

CCN(Cc1ccccc1)C(=S)NC1CCCCC1
inactive: [21] 96 % of control | dose: 200.0 mg/kg/injection, schedule: Q04DX002 (ip), vehicle: saline 96 % of control | dose: 400.0 mg/kg/injection, schedule: Q04DX002 (ip), vehicle: saline 100 % of control

Nc1nc(N)c(N)c(N=O)n1
inactive: dose: 100.0 mg/kg/injection, schedule: Q01DX Z (ip), vehicle: methylcellulose (MC) 86 % of control

CCCCC(=O)NS(=O)(=O)c1ccccc1
inactive: [1] 92 % of control | [2] 94 % of control | [3] 105 % of control | [4] 101 % of control | [5] 107 % of control | [6] 94 % of control

CC(=O)CCN1CCCCC1
inactive: dose: 20.0 mg/kg/injection, schedule: Q04DX003 (ip), vehicle: saline 124 % of control

C#CCOCCBr
inactive: [2] 97 % of control | [4] 95 % of control

Cc1ccc(C(=O)C2CC2c2ccccc2)cc1 (stereo not given)
inactive: [17] 101 % of control | [18] 101 % of control | [19] 95 % of control

Source: PubChem BioAssay AID248 (DTP/NCI, 2004)
